# Tests used:
# [1] = Plasma protein binding by rapid equilibrium dialysis; assay type: in vitro ADME; settings: RED
# Experimental: Mouse plasma protein binding was measured by rapid equilibrium dialysis (RED) performed by Malvern Panalytical (UK). Briefly, mouse plasma was warmed to 37°C for 10 min, and test compound stock solution was added to achieve a 5 μM solution; 500 μl of dialysis buffer was added to one side of the chamber of the device insert (Piercenet, Dialysis membrane MWCO 8000) housed within a heated Teflon block, and the incubation was initiated by the addition of 300 μl of the test compound protein solution to the opposite chamber. Equilibrium was reached by shaking the device on an orbital mixer at 37°C for 4 h; 50 μl aliquots from the buffer and the plasma chambers were transferred into separate wells of a deep‐well plate; 50 μl of plasma was added to the buffer samples, and 50 μl of buffer was added to the plasma samples; 300 μl of ice‐cold acetonitrile containing internal standard was added to precipitate the protein. Samples were then centrifuged (2700 × g at 4°C for 20 min) to pellet the protein, and the supernatant was analysed by LC–MS/MS to quantify the % input compound unbound to plasma protein with reference to a standard curve.
# mPIEZO2 = biological target: T1, mPIEZO2 (Mus musculus, UniProt Q8CD54); experiment: Intracellular Ca2+ measurement in HEK 293 cells overexpressing mPIEZO2; assay type: cell-based; settings: 10 μM, versus non-transfected cells
# T1 construct: host or cells: HEK 293, transient
# Experimental: mPIEZO2 pCMV‐Sport6 was a gift from Ardem Patapoutian (Coste et al., [2015]), obtained via Addgene (Addgene plasmid #81073; http://n2t.net/addgene:81073; RRID:Addgene_81073). It was sequenced for validation. Transient transfection of the plasmid was achieved using Lipofectamine 3000 in HEK 293 cells, 48 h prior to measurements being made.
# HEK 293‐TREx cells and their stably transfected derivatives or transiently transfected HEK 293 or HeLa cells were seeded at a density of 7.5 × 10^4 cells per well into poly‐D‐lysine‐coated 96‐well plates. The plates were either commercially pre‐coated with poly‐D‐lysine (Greiner Bio‐One #655946) or (Greiner Bio‐One #655090) were coated in‐house with 35 μl of a 10 μg·ml^−1 poly‐D‐lysine (Bio‐Techne, Cultrex # 3439‐100‐01) in sterile deionised water per well for at least 24 h and rinsed three times with 100 μl per well sterile D‐PBS before addition of cells. HUVECs were seeded into tissue culture‐treated 96‐well plates (Greiner Bio‐One #655090) at a density of either 2.5 × 10^4 cells 24 h before experimentation or 1.25 × 10^4 cells 48 h before experimentation. […] Measurements were made at room temperature on a 96‐well fluorescence plate reader (FlexStation 3, Molecular Devices, Sunnyvale, CA, USA) controlled by SoftMax Pro software v7.0.3. […]
# T1 sequence (Q8CD54 whole entry): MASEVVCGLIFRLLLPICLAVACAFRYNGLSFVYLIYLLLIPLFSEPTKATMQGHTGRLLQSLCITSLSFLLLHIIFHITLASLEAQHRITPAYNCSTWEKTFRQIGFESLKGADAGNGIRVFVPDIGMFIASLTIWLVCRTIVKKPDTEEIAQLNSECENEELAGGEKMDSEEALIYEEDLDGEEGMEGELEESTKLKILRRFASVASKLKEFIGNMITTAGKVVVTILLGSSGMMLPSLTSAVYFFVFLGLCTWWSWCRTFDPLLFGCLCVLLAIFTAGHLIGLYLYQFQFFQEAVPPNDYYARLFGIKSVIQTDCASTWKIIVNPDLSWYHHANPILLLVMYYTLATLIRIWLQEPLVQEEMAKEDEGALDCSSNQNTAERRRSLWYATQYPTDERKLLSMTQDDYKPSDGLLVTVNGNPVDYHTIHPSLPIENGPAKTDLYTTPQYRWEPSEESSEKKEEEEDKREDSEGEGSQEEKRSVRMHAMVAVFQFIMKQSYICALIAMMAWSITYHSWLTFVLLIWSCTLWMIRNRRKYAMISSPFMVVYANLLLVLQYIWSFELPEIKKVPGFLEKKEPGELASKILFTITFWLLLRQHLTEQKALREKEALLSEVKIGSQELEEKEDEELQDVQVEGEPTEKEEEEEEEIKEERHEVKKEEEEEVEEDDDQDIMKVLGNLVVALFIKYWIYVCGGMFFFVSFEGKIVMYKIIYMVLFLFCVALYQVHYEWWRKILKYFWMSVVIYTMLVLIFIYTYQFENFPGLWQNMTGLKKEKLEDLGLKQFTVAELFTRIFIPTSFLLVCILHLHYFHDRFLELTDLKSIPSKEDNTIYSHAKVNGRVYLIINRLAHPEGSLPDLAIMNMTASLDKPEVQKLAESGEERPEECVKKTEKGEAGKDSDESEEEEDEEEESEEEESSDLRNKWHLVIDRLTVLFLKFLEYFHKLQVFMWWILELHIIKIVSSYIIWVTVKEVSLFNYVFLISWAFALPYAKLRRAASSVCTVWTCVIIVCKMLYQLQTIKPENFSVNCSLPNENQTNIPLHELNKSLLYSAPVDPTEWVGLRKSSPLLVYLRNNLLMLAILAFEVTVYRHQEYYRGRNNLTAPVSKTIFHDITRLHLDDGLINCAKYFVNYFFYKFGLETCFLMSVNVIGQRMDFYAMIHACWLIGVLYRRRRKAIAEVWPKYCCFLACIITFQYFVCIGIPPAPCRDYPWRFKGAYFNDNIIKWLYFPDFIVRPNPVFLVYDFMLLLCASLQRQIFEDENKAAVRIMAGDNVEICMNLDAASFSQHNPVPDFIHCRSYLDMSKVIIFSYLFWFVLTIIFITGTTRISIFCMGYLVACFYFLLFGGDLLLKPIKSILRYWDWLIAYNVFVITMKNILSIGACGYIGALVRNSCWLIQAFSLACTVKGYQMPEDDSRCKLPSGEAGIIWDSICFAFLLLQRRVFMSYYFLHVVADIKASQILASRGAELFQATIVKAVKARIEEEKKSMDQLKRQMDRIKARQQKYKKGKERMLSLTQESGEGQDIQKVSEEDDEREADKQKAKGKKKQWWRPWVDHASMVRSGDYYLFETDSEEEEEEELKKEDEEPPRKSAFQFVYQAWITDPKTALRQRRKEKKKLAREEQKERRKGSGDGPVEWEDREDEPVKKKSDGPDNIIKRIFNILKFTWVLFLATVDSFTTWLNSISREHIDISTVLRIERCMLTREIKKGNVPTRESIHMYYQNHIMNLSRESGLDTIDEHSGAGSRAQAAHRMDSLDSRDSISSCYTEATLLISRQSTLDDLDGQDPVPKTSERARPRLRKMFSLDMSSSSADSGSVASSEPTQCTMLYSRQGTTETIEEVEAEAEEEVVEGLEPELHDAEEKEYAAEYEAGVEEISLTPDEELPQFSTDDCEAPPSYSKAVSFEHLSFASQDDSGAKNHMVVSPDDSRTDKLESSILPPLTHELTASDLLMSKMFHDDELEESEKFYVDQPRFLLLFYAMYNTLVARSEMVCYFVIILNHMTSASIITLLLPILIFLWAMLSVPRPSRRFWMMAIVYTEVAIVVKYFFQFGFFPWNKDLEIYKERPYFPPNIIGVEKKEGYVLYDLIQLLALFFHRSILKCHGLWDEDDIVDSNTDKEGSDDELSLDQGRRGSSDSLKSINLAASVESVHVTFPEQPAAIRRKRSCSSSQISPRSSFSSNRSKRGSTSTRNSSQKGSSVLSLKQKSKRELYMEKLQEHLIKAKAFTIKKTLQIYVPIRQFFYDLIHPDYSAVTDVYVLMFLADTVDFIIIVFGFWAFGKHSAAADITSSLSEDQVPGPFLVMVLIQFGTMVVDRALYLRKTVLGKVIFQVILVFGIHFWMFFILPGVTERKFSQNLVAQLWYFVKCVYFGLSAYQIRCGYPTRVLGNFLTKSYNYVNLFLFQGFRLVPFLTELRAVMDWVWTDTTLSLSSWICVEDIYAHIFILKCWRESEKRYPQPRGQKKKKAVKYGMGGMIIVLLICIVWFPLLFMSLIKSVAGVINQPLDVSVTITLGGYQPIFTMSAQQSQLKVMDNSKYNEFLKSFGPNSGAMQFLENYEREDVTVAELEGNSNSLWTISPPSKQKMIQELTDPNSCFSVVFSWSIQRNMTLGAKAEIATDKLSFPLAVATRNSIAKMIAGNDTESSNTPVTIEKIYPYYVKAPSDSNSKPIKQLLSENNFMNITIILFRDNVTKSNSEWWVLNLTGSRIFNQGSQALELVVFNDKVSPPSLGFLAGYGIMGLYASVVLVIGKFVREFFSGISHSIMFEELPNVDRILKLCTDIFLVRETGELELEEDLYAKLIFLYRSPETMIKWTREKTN
SMILES,"Fraction bound to plasma proteins ([1]; mouse plasma, 5 μM)",Ca2+ elevations in cells overexpressing mPIEZO2 (mPIEZO2),"fraction unbound at 4 h, 5 μM ([1]; mouse, plasma, read-out: Fraction bound to plasma proteins (converted))"
O=C([O-])c1ccc(-c2nnc(SCc3c(Cl)cccc3Cl)s2)cc1.[K+] [KC289],99.35%,not different from background signals in non‐transfected cells,
O=C(O)c1ccc(-c2nnc(SCc3c(Cl)cccc3Cl)s2)cc1 [KC159],,not different from background signals in non‐transfected cells,0.006

# Source: PMC10952572, “Improved PIEZO1 agonism through 4‐benzoic acid modification of Yoda1” (British Journal of Pharmacology, 2023)
